The text below walks through data of paper PMC4723269 (Archives of biochemistry and biophysics, 2015).

Molecules are shown by their SMILES.

For this experiment, the target named is T1, Mtm1p (YGR257cp) (Saccharomyces cerevisiae, UniProt P53320).
T1 sequence (P53320 1-366): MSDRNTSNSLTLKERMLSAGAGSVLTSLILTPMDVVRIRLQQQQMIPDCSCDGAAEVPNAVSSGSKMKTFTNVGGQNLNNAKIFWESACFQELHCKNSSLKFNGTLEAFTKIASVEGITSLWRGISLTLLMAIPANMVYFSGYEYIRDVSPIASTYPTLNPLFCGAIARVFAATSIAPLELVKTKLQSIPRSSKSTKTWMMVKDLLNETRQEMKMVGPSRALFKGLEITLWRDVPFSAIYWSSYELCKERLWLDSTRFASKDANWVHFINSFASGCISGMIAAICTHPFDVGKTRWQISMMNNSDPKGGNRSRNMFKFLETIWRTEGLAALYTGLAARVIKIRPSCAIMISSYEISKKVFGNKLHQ
The experiment can be described thus: stoichiometric tryptophan fluorescence quenching titration. In kind it is binding.

For the compound `Cc1ncc(COP(=O)(O)O)c(C=O)c1O` [PLP, pyridoxal 5′-phosphate], the Kd (commonly a measure of binding affinity in units of concentration) amounted to 1900 ± 300 nM.
